Reference: the pKa sets of Baltruschat and Czodrowski (2020)

Conditions: basic group
With `CCCCSCCN` the pKa was 8.37. Work on `COc1nc2ccccc2c2ccccc12` yielded a pKa of 2.38. Work on `CCN(CC)c1ccc(C(O)(c2ccccc2)c2ccc(N(CC)CC)cc2)cc1` yielded a pKa of 7.9. Work on `CCN(CC)CC(=O)Nc1ccccc1` yielded a pKa of 8. `O=C(CCCCN1CCOCC1)c1ccccc1` showed a pKa of 7.5. In the case of `OC(c1ccccc1)(c1ccccc1)c1ccccn1`, the pKa is reported as 3.9. For `COc1ccc(F)cc1C(=O)N[C@@H]1C[C@H]2CC[C@@H](C1)N2Cc1ccccc1`, the pKa was 8.82. `CCCc1cccnn1` showed a pKa of 3.59. `CCN(CC)CCCC(C)=O` showed a pKa of 10.1. Compound `C=CC(=O)OCCN(CC)CC` has a pKa of 8.55. Work on `CC(C)c1ccccc1N` yielded a pKa of 4.42. `Cc1c[nH]c(C)c1C` showed a pKa of 3.94. `CSc1nc(N)c2[nH]cnc2n1` gave a pKa of 3.1. With `CCCCN(C)C` the pKa was 10. With `C#C[C@]1(O)C[C@@H](C)N[C@H]2CCCC[C@@H]21` the pKa was 9.29. In the case of `CSc1ccc(N)c(I)c1`, the pKa is reported as 2.45. With `CN(C)CCCN=C(c1ccccc1)c1ccccc1` the pKa was 9.4. Compound `CC(O)CN(CCCN1CCOCC1)CC(C)O` (stereo not drawn) has a pKa of 8.4. Compound `Nc1ccc2nc3cc(N)ccc3cc2c1` has a pKa of 8.11. In the case of `C(=C\CN1CCCCC1)/CN1CCCCC1`, the pKa is reported as 9.7. For `CC(C)(C)c1ccccn1`, the pKa was 5.72. For `CSc1nc2cc3c(cc2[nH]1)CCCC3`, the pKa was 5. With `CC(C)(C)CC(=O)n1ccnc1` the pKa was 3.8. Work on `CN(C)Cc1cc([N+](=O)[O-])ccc1[O-]` yielded a pKa of 9.93. Compound `CCCCCN(CC(O)CC)CC(O)CC` (stereo not drawn) has a pKa of 9.2. `NCc1ccc(Cl)cc1[N+](=O)[O-]` gave a pKa of 8.34. `Nc1ccc2c(c1)CCC2` showed a pKa of 5.35. Work on `Cc1nnc(C)c(C)c1C` yielded a pKa of 5.36. With `CCCCCCCCN1CCCCC1` the pKa was 8.28. `Cc1nn(C)c2c1C(c1ccccc1F)=NCC(=O)N2C` gave a pKa of 4.69. With `NCCc1ccc(O)c(O)c1` the pKa was 8.89. For `N#CN`, the pKa was 1.1. In the case of `CC(C)[NH2+]CCN`, the pKa is reported as 7.7. In the case of `OCNc1ccc(Cl)cc1`, the pKa is reported as 2.22. In the case of `CC(=O)N(C)c1ccncc1`, the pKa is reported as 4.62. Compound `Nc1ccc(-c2ncc(-c3ccc(Br)cc3)o2)cc1` has a pKa of 2.8. `O=C1N[C@@H](Cc2cnc[nH]2)C(=O)N[C@H]1Cc1cnc[nH]1` gave a pKa of 6.54. `O=C([O-])c1c2ccccc2nc2ccccc12` gave a pKa of 5. With `COCC(C)CN(C)C` (stereo not drawn) the pKa was 9.69. With `CCCCc1ccccc1N` the pKa was 4.26. Compound `Cc1nccc2c1[nH]c1cc(O)ccc12` has a pKa of 7.39. `[O-]c1c(Cl)cc(Cl)cc1CN1CCCCC1` gave a pKa of 11.1. With `Nc1nc(N)nc(Nc2ccccc2)n1` the pKa was 4.65. Work on `Nc1cnnc2ccccc12` yielded a pKa of 6.84. With `Cc1ccccc1/C(=N\CCCN(C)C)c1cccc2ccccc12` the pKa was 8.8. Compound `Cc1cnc2ccccc2n1` has a pKa of 0.95. Work on `N/C(=N\O)C([NH3+])c1ccccc1` (stereo not drawn) yielded a pKa of 2.3. Compound `O=C1N[C@@H](Cc2c[nH+]c[nH]2)C(=O)N[C@H]1Cc1cnc[nH]1` has a pKa of 5.56. In the case of `[O-]c1cnnc2ccccc12`, the pKa is reported as 9.27. With `COC(=O)[C@@H]1[C@@H](O)C[C@H]2CC[C@@H]1N2C` the pKa was 8.21. Compound `CC[NH+](CC)CCN` has a pKa of 6.76. In the case of `NCCCCCCCCCC(=O)[O-]`, the pKa is reported as 11. Compound `CCN1CCCC1CNS(=O)(=O)c1ccc(OC)c(OC)c1OC` (stereo not drawn) has a pKa of 8.7. For `Nc1cnc2ccccc2n1`, the pKa was 3.93. With `C[n+]1c(NN)ccc2ccccc21` the pKa was 2.66. `COc1ccc(C(O)c2ccccc2)cc1` (stereo not drawn) gave a pKa of -8. For `Cc1ccc(NN=C(C#N)C#N)cc1`, the pKa was -0.83. `NC(Cc1c[nH]c(=S)[nH]1)C(=O)[O-]` (stereo not drawn) gave a pKa of 8.47. `Cc1cc(-c2ccccn2)nn1C` showed a pKa of 4.52. Work on `CCOC(=O)C1CN2CCC1CC2` (stereo not drawn) yielded a pKa of 9.64. `O=C([O-])c1cc(-c2ccccc2)nnc1NCC[NH+]1CCOCC1` gave a pKa of 3.33. In the case of `CC(C)(C)N1NC2CCC1CC2`, the pKa is reported as 9.54. Work on `CNCC(O)CO` (stereo not drawn) yielded a pKa of 9.55. `O=[N+]([O-])c1ccc(Nc2ccccc2)cc1` showed a pKa of -2.5. With `CN(C(=O)c1ccccc1)c1ccncc1` the pKa was 4.68. Work on `CCCNCc1ccc(C)cc1` yielded a pKa of 9.98. With `Cc1cc(C)n(-c2cc(C)n(C)[nH+]2)n1` the pKa was -2.9. Compound `COc1ccc(CCN)cc1` has a pKa of 9.79. In the case of `CC(C)(CN)C[NH3+]`, the pKa is reported as 7.99. In the case of `NCCCCCCCCCCC(=O)[O-]`, the pKa is reported as 11. Compound `NC1=[NH+][C@@H](CC(=O)[O-])C(=O)N1CCCC(N)C(=O)[O-]` (stereo partly drawn) has a pKa of 8.1. `COC1CC2CCN1CC2` (stereo not drawn) showed a pKa of 8.87. Compound `CN(C)c1ccc(C(=N)c2ccc(N(C)C)cc2)cc1` has a pKa of 10.7. In the case of `COc1cccc(OC)c1-c1nc2cnccc2[nH]1`, the pKa is reported as 6.34. For `Cn1nc(-c2ccccc2)cc/c1=N\CCN1CCOCC1`, the pKa was 10.2. Work on `CCCN(CCC)c1ccccc1` yielded a pKa of 6.13. `Nc1nc(N)c2cnn(-c3ccccc3)c2n1` gave a pKa of 4.49. `c1ccc(C2NCCS2)cc1` (stereo not drawn) showed a pKa of 5.2. Work on `c1c[nH]c(P(c2ncc[nH]2)c2[nH]cc[nH+]2)n1` yielded a pKa of 6.59. Compound `Cc1ccccc1NC(=N)Nc1ccccc1C` has a pKa of 9.67. For `Nc1cnccn1`, the pKa was 3.14. Work on `N=C(c1ccccc1)c1ccccc1O` yielded a pKa of 5. Work on `CC(O)CNC(C)(C)C` (stereo not drawn) yielded a pKa of 10. In the case of `Cc1ccc(-c2cnc(-c3ccc(Br)cc3)o2)cc1`, the pKa is reported as 0.56. `CC(C)CCNc1ncnc2[nH]ncc12` showed a pKa of 4.62. For `O=C([O-])c1ccc([N+](=O)[O-])c2cccnc12`, the pKa was 4.67. `CC(=O)N1CCNCC1` gave a pKa of 7.94. With `c1cncc(-c2ccc[nH]2)c1` the pKa was 4.32.
